Data on five molecules can be found in US11572394B2, “Peptides for targeting LRP6-overexpressed cells” (PASTEUR INSTITUTE OF IRAN, priority 2020, dated 2023).

Where a SMILES comes first, the peptide text is derived from it. Bridges are numbered along the chain shown (N, C = ends). Where no end group is shown, it is not given here.

Holding throughout (assay type): cell-based, human
Experiment [1] has as its system SW480. The experiment in a line: Annexin V/PI flow cytometry apoptosis assay. The following applies: 24 hours, p<0.05; for cell death compared with HUVEC cell line: SW480, 1 mM; for cell death of SW480 compared with HCT116 cell line: 1 mM. As for the experimental part:
(§1) In this example, the apoptotic effect of exemplary peptides on cancer cells was examined by analyzing the number of apoptotic cells in HCT116 and SW480 and HUVEC cell lines before and after treatment with 1 mM of each exemplary peptide for 24 hours. Annexin V and propidium iodide (PI) staining were used to evaluate the apoptosis induced by treatment with exemplary peptides in each cell line. Stained cells may be counted by flow cytometry to calculate the percentage of apoptosis (Annexin V positive and PI negative) and necrosis percentage (Annexin V positive and […]) for each cell line.
(§2) The percentage of Annexin V positive and PI negative cells were considered early apoptosis, and the percentage of both Annexin positive and PI-positive cells was considered late apoptosis and necrosis. The sum of these two groups of cells was considered as the cell death rate.
(In flow cytometry, cells or beads pass a laser one at a time.)

Experiment [2] has as its system HCT116. The experiment in a line: Annexin V/PI flow cytometry apoptosis assay. Conditions: 24 hours, p<0.05; for cell death compared with HUVEC cell line: HCT116, 1 mM. The procedure: as §1, §2
Experiment [3] has as its system Wnt signaling pathway, SW480 cell line. The experiment in a line: Western blotting of LRP6 and β-catenin proteins with signal densitometry. The following applies: SW480, Western blot signal densitometry. As for the experimental part: (§3) In this example, the effect of exemplary peptides on the expression of LRP6 and downstream genes of the Wnt signaling pathway, such as β-catenin, cyclin D1, and C-MYC, was evaluated at transcription level using real-time PCR and at translation level using Western blotting. The Gapdh gene was used as the reference gene. The expression fold change of more than 2 times (treated cell against untreated cell) was defined as increasing expression, and cases with a fold change of 0.5 to 2 were unchanged, and cases with expression fold change less than 0.5 were considered as a reduction in expression.
(§4) Also, the effect of exemplary peptides on the levels of LRP6 and β-catenin proteins in the β-catenin/Wnt signaling pathway was investigated by Western blotting. Also, each protein's relative expression was determined through signal densitometry of each Western blot band.
On the technique in general: Immunoblotting shows a protein as a band on a membrane.

The test system of experiment [4] is Wnt signaling pathway, HCT116 cell line. The experiment is described as above. Conditions: HCT116, Western blot signal densitometry. The procedure:
as §3, §4

In experiment [5] the test system is Wnt signaling pathway, SW480 cell line. The experiment in a line: Real-time PCR of LRP6 and downstream genes of the Wnt signaling pathway. Conditions: treated against untreated. As for the experimental part:
as §3
For orientation: Quantitative PCR measures a nucleic acid by following its amplification.

Experiment [6] has as its system Wnt signaling pathway, HUVEC cell line. The experiment is described as above. Conditions: treated against untreated. As for the experimental part: as §3
Experiment [7] concerns Wnt signaling pathway, HCT116 cell line. The experiment is described as above. The following applies: treated against untreated. The procedure: as §3
Experiment [8] concerns Wnt signaling pathway, HUVEC cell line. The experiment in a line: Western blotting of LRP6 and β-catenin proteins with signal densitometry. The following applies: Western blot signal densitometry. The procedure: as §3
Also, the effect of exemplary peptides on the levels of LRP6 and β-catenin proteins in the β-catenin/Wnt signaling pathway was investigated by Western blotting. Also, each protein's relative expression was determined through signal densitometry of each Western blot band. FIG. 11A illustrates relative expression β-actin, β-catenin, and LRP6 in SW480, HCT116, and HUVEC cell lines, consistent with one or more exemplary embodiments of the present disclosure. Referring to FIG. 11A, the relative expressions of β-catenin and LRP6 in SW480 and HCT116 were higher than HUVEC as a normal cell.

Take `CC[C@H](C)[C@H](NC(=O)[C@H](CCC(=O)O)NC(=O)[C@H](CC(C)C)NC(=O)CNC(=O)[C@H](Cc1c[nH]cn1)NC(=O)[C@H](CO)NC(=O)CNC(=O)[C@H](CCCCN)NC(=O)[C@H](CCCNC(=N)N)NC(=O)[C@H](CCCNC(=N)N)NC(=O)[C@H](Cc1c[nH]cn1)NC(=O)[C@H](CCCCN)NC(=O)[C@@H](NC(=O)[C@H](CS)NC(=O)[C@@H](NC(=O)[C@@H](N)CCC(N)=O)C(C)C)[C@@H](C)O)C(=O)N[C@@H](Cc1ccccc1)C(=O)N[C@@H](CCC(N)=O)C(=O)N[C@@H](CCCNC(=N)N)C(=O)N[C@@H](CS)C(=O)N[C@@H](Cc1ccc(O)cc1)C(=O)O` [Pep-2] (H-QVCTKHRRKGSHGLEIFQRCY-OH; N-terminus and C-terminus assumed): the “cell death compared with HUVEC cell line” value in experiment [1] and in experiment [2] was “significantly higher” each time. In experiment [2] (1 mM), the “cell death rate of HCT116 compared with SW480” value was “significantly higher”. Besides, the “decrease of β-catenin protein level” value in experiment [3] and in experiment [4] was 20% each time. The “expression of C-MYC gene” value is listed as “reduced” in experiment [5], “did not change” in experiment [6] and “reduced” in experiment [7]. For the same molecule, the “expression of LRP6 gene” value in experiment [5], in experiment [6] and in experiment [7] was “did not change” throughout. For the same molecule, the “expression of cyclin D1 gene” value in experiment [5] is “reduced”; in experiment [6], “did not change”; in experiment [7], “reduced”. Moreover, the results for the “expression of β-catenin gene” value in experiment [5], in experiment [6] and in experiment [7] were “reduced”, “did not change” and “reduced”, respectively.
For the molecule `CC[C@H](C)[C@@H]1NC(=O)[C@H](CCCCN)NC(=O)[C@H](CO)NC(=O)[C@H](Cc2c[nH]c3ccccc23)NC(=O)[C@H](Cc2ccccc2)NC(=O)[C@H](Cc2c[nH]cn2)NC(=O)[C@H](CCCNC(=N)N)NC(=O)[C@H](C)NC(=O)[C@H](CS)NC(=O)[C@@H](N)CSSC[C@@H](C(=O)O)NC1=O` [Pep-4] (H-CCARHFWSKIC-OH; disulfide 1-11), in experiment [1], the “cell death of SW480 compared with HCT116 cell line” value is “significantly higher” and the “cell death compared with HUVEC cell line” value was “significantly higher”. Besides, the “decrease of β-catenin protein level” value in experiment [3] is given as 20%. Further, the “decrease of β-catenin protein level” value in experiment [4] worked out at 20%. Besides, in experiment [5], the “expression of C-MYC gene” value was “reduced”, the “expression of LRP6 gene” value is “did not change”, the “expression of cyclin D1 gene” value was “reduced” and the “expression of β-catenin gene” value was “reduced”. Further, in experiment [6], the “expression of C-MYC gene” value is given as “have not changed”, the “expression of LRP6 gene” value was “have not changed”, the “expression of cyclin D1 gene” value is recorded as “have not changed” and the “expression of β-catenin gene” value is given as “have not changed”. In experiment [7], the “expression of C-MYC gene” value is recorded as “reduced”, the “expression of LRP6 gene” value is “did not change”, the “expression of cyclin D1 gene” value was “reduced” and the “expression of β-catenin gene” value is on record as “reduced”.
As for NGYITFQDGNDYFRFPLNN [Pep-3], in experiment [8], the “effect on β-catenin protein content” value is “no significant effect”. Besides, the “decrease of β-catenin protein level” value in experiment [3] and in experiment [4] was “no significant effect” in each case. Moreover, the “expression of C-MYC gene” value in experiment [5], in experiment [6] and in experiment [7] was “did not change” in each case. Also, the “expression of LRP6 gene” value in experiment [5], in experiment [6] and in experiment [7] was “did not change” throughout. Moreover, the “expression of cyclin D1 gene” value in experiment [5], in experiment [6] and in experiment [7] was “did not change” throughout. For the same molecule, the “expression of β-catenin gene” value in experiment [5], in experiment [6] and in experiment [7] was “did not change” each time.
As to NSSSLSSGSGNNANGNFLTYY [Pep-1], in experiment [8], the “effect on β-catenin protein content” value is “no significant effect”. Also, in experiment [1], the “cell death of SW480 compared with HCT116 cell line” value was “significantly higher”. The “cell death compared with HUVEC cell line” value in experiment [1] and in experiment [2] was “significantly higher” each time. The “decrease of β-catenin protein level” value in experiment [3] and in experiment [4] was “no significant effect” throughout. For the same molecule, the “expression of C-MYC gene” value in experiment [5], in experiment [6] and in experiment [7] was “did not change” throughout. Besides, the “expression of LRP6 gene” value in experiment [5], in experiment [6] and in experiment [7] was “did not change” throughout. The “expression of cyclin D1 gene” value in experiment [5], in experiment [6] and in experiment [7] was “did not change” throughout. Also, the “expression of β-catenin gene” value in experiment [5], in experiment [6] and in experiment [7] was “did not change” throughout.

B1: Wnt5a: Wnt5a, effective ligand for non-canonical Wnt signaling pathway, positive control (protein, UniProt P41221 62-380, looked up)
Protein Wnt-5a: IIGAQPLCSQLAGLSQGQKKLCHLYQDHMQYIGEGAKTGIKECQYQFRHRRWNCSTVDNTSVFGRVMQIGSRETAFTYAVSAAGVVNAMSRACREGELSTCGCSRAARPKDLPRDWLWGGCGDNIDYGYRFAKEFVDARERERIHAKGSYESARILMNLHNNEAGRRTVYNLADVACKCHGVSGSCSLKTCWLQLADFRKVGDALKEKYDSAAAMRLNSRGKLVQVNSRFNSPTTQDLVYIDPSPDYCVRNESTGSLGTQGRLCNKTSEGMDGCELMCCGRGYDQFKTVQTERCHCKFHWCCYVKCKKCTEIVDQFVCK
As to B1, in experiment [5], the “expression of C-MYC gene” value is listed as “did not change”, the “expression of LRP6 gene” value is recorded as “did not change”, the “expression of cyclin D1 gene” value is given as “did not change” and the “expression of β-catenin gene” value is “did not change”. Further, in experiment [6], the “expression of C-MYC gene” value is “did not change”, the “expression of LRP6 gene” value is given as “did not change”, the “expression of cyclin D1 gene” value is “did not change” and the “expression of β-catenin gene” value was “did not change”. In experiment [7], the “expression of C-MYC gene” value was “did not change”, the “expression of LRP6 gene” value is on record as “did not change”, the “expression of cyclin D1 gene” value is listed as “did not change” and the “expression of β-catenin gene” value is “did not change”.
